Measured values published in patent EP4691482A1, “LONG-ACTING CALCITONIN ANALOG” (Chengdu Aoda Biotechnology Co., Ltd., priority 2023, dated 2024).

What was measured:
in vivo = test: in vivo; set-up: species or system Macaca fascicularis; details: cynomolgus monkey, sc, 0.1 mg/kg
Experimental: Macaca fascicularis were used as experimental animals. A subcutaneous administration was performed at a dose of 0.1 mg/kg. Venous blood samples were collected before administration (0 h) and at 1 h, 2 h, 3 h, 4 h, 8 h, 12 h, 18 h, 24 h, 48 h, 96 h, 144 h, and 168 h post-administration. Plasma samples were separated by centrifugation. The plasma concentration of the compound in the plasma samples was determined using liquid chromatography-mass spectrometry.

[1] = target: T1, calcitonin receptors (CTR) (Homo sapiens, UniProt P30988); test: cAMP determination (HTRF, cAMP Dynamic 2 Kit) in cAMP Hunter HEK293-CT-R Gs cell line; type: cell-based; details: relative to Salmon Calcitonin = 100.0; HEK293 CT-R cAMP
T1 construct: expressed in transfected cells; host or cells: cAMP Hunter HEK293-CT-R Gs cell line (HEK293, stably transfected)
T1 sequence (P30988 25-474): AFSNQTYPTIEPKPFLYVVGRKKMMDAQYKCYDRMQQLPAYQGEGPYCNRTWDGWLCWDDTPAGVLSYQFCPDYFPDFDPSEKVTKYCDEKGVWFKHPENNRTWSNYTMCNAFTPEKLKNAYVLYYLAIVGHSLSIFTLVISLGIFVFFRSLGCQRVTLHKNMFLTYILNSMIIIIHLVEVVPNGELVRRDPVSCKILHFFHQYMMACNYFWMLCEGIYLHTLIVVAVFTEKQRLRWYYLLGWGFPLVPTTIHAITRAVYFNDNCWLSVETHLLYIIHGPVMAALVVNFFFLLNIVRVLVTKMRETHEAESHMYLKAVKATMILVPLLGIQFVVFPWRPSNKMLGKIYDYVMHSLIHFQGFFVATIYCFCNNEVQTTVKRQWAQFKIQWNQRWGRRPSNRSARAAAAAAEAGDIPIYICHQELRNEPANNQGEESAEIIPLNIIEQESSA

**Q.** For `CC(C)C[C@H](NC(=O)[C@H](CCCCN)NC(=O)CNC(=O)[C@H](CC(C)C)NC(=O)[C@@H](NC(=O)[C@@H]1CSSC[C@H](N)C(=O)N[C@@H](CO)C(=O)N[C@@H](CC(N)=O)C(=O)N[C@@H](CC(C)C)C(=O)N[C@@H](CO)C(=O)N[C@@H]([C@@H](C)O)C(=O)N1)C(C)C)C(=O)N[C@@H](CO)C(=O)N[C@@H](CCC(N)=O)C(=O)N[C@@H](CCC(=O)O)C(=O)N[C@@H](CC(C)C)C(=O)N[C@@H](Cc1c[nH]cn1)C(=O)N[C@@H](CCCCNC(=O)COCCOCCOCCOCCOCCNC(=O)CC[C@H](NC(=O)CCCCCCCCCCCCCCCCCCC(=O)O)C(=O)O)C(=O)N[C@@H](CC(C)C)C(=O)N[C@@H](CCC(N)=O)C(=O)N[C@H](C(=O)N[C@@H](Cc1ccc(O)cc1)C(=O)N1CCC[C@H]1C(=O)N[C@@H](CCCNC(=N)N)C(=O)N[C@H](C(=O)N[C@@H](CC(N)=O)C(=O)N[C@H](C(=O)NCC(=O)N[C@@H](CO)C(=O)NCC(=O)N[C@H](C(=O)N1CCC[C@H]1C(N)=O)[C@@H](C)O)[C@@H](C)O)[C@@H](C)O)[C@@H](C)O` [Compound 5, Cys-Ser-Asn-Leu-Ser-Thr-Cys-Val-Leu-Gly-Lys-Leu-Ser-Gln-Glu-Leu-His-Lys(PEG5CH2CO-γGlu-eicosanedioic acid)-Leu-Gln-Thr-Tyr-Pro-Arg-Thr-Asn-Thr-Gly-Ser-Gly-Thr-Pro-NH2], which half-life (in vivo) is on record?
**A.** 53.6 h

**Q.** What about the “Relative Activity%” value [1] of the same molecule?
**A.** 339.3%
